Columns and labels:
Test in all cases: Competitive isoTOP-ABPP in situ (fragment-treated cells)
Assay type in all cases: cell-based
[1] = molecular target: cysteines in MDA-MB-231 and Ramos cells (Homo sapiens, UniProt O60825); details: 200 μM, insitu
[2] = molecular target: cysteines in MDA-MB-231 and Ramos cells (Homo sapiens, UniProt P04818); details: 200 μM, insitu
[3] = molecular target: cysteines in MDA-MB-231 and Ramos cells (Homo sapiens, UniProt O15446); details: 200 μM, insitu, 231
[4] = molecular target: cysteines in MDA-MB-231 and Ramos cells (Homo sapiens, UniProt O14980)
Chain of cysteines in MDA-MB-231 and Ramos cells (Homo sapiens, UniProt O14980) (O14980 whole entry): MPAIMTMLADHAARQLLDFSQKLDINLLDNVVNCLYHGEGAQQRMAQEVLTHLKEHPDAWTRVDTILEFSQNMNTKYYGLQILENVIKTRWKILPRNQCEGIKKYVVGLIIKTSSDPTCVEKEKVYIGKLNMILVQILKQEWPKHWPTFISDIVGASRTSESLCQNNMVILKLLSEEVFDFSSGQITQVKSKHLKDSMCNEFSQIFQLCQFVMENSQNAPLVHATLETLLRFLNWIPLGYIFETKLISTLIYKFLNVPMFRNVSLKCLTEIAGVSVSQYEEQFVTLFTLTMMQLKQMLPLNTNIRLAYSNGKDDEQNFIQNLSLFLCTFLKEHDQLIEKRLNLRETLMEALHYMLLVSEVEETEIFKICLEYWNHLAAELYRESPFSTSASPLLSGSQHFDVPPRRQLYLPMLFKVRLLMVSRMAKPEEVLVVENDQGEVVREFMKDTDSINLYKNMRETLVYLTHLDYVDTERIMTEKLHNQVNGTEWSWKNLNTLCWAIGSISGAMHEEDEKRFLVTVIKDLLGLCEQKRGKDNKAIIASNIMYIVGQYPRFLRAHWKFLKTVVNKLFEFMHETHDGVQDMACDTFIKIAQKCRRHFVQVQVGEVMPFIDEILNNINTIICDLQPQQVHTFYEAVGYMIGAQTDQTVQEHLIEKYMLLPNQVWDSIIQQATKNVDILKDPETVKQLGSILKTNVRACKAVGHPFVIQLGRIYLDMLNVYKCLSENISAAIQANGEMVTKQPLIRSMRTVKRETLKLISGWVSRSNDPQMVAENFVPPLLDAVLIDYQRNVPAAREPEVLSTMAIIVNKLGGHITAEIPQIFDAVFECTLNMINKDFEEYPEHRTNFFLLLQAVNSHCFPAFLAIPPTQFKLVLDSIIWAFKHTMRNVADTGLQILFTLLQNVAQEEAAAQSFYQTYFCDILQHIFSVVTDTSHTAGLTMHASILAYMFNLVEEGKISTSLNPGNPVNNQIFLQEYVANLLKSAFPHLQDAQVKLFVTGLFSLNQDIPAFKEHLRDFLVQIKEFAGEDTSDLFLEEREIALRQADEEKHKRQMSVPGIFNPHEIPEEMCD

[5] = molecular target: T1, cysteines in MDA-MB-231 and Ramos cells (Homo sapiens, UniProt Q15398)
T1 sequence (Q15398 1-846): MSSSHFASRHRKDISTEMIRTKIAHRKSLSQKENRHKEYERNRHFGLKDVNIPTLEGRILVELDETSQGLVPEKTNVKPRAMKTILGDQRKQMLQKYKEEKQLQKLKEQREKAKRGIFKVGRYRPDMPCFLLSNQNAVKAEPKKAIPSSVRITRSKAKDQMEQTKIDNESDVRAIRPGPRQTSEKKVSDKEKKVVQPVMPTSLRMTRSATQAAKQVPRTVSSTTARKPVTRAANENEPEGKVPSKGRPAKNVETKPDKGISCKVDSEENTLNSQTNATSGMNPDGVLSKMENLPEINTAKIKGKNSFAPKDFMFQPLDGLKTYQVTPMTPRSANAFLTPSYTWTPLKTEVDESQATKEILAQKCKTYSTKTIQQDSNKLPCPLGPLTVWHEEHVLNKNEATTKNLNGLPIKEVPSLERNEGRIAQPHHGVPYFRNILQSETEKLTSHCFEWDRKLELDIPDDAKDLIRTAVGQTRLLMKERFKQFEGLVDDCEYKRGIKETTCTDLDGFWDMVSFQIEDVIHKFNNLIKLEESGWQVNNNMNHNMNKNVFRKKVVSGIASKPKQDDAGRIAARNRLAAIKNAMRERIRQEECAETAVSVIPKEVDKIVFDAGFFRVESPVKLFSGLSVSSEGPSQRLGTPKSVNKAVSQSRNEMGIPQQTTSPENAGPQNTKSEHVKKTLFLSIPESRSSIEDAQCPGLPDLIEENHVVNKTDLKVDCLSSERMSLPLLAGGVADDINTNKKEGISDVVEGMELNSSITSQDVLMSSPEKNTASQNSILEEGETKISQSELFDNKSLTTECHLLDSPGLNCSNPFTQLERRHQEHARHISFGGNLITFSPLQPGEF

[6] = molecular target: T2, cysteines in MDA-MB-231 and Ramos cells (Homo sapiens, UniProt Q8N1F7); details: 200 μM, insitu
T2 sequence (Q8N1F7 1-819): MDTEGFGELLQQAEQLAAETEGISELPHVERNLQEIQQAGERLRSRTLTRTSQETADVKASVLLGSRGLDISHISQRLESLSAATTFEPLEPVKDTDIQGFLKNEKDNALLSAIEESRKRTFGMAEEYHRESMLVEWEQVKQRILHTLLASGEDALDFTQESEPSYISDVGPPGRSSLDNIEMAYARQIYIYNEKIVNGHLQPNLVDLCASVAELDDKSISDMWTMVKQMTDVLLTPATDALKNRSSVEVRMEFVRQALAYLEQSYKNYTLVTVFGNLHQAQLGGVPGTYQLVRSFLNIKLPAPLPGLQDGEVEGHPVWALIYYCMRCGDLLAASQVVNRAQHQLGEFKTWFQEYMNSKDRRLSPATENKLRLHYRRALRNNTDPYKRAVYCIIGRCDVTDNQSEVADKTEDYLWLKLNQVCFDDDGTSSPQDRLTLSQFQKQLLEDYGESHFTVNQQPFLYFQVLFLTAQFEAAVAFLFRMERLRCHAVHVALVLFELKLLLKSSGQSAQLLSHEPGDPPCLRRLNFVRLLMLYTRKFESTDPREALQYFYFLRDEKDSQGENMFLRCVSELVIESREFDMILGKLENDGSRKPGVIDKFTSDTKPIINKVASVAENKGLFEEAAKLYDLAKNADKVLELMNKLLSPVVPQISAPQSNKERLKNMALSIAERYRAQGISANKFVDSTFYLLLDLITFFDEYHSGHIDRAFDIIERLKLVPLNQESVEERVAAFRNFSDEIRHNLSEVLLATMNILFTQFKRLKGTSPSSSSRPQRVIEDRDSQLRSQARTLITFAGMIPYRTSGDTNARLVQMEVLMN

[7] = molecular target: T3, cysteines in MDA-MB-231 and Ramos cells (Homo sapiens, UniProt P53384); details: 200 μM, insitu, 231
T3 sequence (P53384 1-320): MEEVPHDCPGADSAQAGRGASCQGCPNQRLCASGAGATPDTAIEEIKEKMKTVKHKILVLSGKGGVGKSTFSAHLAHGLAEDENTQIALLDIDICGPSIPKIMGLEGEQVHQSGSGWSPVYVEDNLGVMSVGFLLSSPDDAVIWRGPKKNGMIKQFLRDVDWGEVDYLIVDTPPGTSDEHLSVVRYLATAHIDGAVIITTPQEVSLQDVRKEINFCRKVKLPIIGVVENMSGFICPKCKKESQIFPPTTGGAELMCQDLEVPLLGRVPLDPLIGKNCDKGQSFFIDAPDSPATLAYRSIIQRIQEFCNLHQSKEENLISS

[8] = molecular target: T4, cysteines in MDA-MB-231 and Ramos cells (Homo sapiens, UniProt P09110)
T4 sequence (P09110 27-424): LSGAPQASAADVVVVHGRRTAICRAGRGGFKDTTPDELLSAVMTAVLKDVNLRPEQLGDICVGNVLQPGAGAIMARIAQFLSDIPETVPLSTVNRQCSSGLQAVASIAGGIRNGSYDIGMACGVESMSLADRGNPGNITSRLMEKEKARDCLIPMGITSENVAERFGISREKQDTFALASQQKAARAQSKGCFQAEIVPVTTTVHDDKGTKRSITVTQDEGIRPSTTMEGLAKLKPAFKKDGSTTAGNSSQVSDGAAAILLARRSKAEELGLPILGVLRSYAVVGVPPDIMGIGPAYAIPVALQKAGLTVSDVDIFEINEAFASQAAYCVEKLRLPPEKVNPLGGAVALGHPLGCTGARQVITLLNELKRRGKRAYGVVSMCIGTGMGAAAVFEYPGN

[9] = molecular target: cysteines in MDA-MB-231 and Ramos cells (Homo sapiens, UniProt O14933); details: 200 μM, insitu
Chain of cysteines in MDA-MB-231 and Ramos cells (Homo sapiens, UniProt O14933) (O14933 whole entry): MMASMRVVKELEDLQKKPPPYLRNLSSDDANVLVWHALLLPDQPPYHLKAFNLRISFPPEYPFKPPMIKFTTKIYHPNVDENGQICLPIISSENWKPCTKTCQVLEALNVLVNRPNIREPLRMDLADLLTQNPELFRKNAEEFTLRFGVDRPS

[10] = molecular target: cysteines in MDA-MB-231 and Ramos cells (Homo sapiens, UniProt Q9BRF8)
Chain of cysteines in MDA-MB-231 and Ramos cells (Homo sapiens, UniProt Q9BRF8) (Q9BRF8 whole entry): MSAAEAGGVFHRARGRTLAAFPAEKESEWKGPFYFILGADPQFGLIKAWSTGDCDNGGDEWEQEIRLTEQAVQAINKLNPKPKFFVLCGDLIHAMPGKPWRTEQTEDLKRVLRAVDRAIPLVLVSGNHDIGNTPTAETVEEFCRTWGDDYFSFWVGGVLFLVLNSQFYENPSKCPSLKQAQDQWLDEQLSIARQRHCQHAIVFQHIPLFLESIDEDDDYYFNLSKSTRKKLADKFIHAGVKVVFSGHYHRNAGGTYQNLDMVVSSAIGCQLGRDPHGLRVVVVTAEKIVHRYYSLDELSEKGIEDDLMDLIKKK

Chain of cysteines in MDA-MB-231 and Ramos cells (Homo sapiens, UniProt O15446) (O15446 whole entry): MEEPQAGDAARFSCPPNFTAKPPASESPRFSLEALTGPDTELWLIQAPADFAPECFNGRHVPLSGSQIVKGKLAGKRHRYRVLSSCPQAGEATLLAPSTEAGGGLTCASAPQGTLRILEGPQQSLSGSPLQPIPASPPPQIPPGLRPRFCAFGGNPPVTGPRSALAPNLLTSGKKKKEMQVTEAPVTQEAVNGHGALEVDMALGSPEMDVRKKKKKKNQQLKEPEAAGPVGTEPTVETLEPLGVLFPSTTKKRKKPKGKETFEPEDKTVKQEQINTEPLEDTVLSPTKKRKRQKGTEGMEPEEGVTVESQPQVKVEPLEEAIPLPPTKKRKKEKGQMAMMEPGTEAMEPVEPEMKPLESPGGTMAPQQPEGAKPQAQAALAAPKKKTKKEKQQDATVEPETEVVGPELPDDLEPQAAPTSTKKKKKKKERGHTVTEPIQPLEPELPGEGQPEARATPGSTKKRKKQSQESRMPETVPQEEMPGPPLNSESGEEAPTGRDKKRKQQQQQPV
Chain of cysteines in MDA-MB-231 and Ramos cells (Homo sapiens, UniProt O60825) (O60825 whole entry): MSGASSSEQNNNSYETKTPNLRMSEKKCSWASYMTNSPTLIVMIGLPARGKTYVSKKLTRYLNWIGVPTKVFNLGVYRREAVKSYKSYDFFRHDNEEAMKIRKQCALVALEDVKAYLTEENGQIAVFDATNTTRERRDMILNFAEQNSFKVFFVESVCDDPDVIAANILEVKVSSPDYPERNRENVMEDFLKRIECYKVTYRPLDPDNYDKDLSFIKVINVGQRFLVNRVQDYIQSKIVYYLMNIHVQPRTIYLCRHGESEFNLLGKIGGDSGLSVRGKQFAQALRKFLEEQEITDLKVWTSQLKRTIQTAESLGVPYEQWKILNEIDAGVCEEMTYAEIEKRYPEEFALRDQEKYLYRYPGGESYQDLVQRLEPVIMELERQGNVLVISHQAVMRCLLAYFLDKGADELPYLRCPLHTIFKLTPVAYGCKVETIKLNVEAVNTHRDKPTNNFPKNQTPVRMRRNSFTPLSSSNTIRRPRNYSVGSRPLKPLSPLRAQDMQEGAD
Chain of cysteines in MDA-MB-231 and Ramos cells (Homo sapiens, UniProt P04818) (P04818 whole entry): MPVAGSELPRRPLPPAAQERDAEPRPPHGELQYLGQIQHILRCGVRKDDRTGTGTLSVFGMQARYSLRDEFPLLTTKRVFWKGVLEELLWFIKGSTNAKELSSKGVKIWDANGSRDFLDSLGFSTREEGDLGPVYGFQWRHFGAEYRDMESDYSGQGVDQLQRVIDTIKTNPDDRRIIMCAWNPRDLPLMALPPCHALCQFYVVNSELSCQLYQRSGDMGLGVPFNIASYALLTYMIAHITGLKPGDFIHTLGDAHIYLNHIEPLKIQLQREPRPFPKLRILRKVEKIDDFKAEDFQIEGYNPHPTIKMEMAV

## COc1ccc2c(c1)CCCN2C(=O)CCl [compound 2]
[1]; 231
  isoTOP-ABPP reactivity O60825_C158 PFKFB2: 0.7
[2]; 231
  isoTOP-ABPP reactivity P04818_C199 TYMS: 20.0
[3]
  isoTOP-ABPP reactivity O15446_C86 CD3EAP: 3.9
[4]; 200 μM, insitu, 231
  isoTOP-ABPP reactivity O14980_0528 XPO1: 20.0
[5]; 200 μM, insitu, 231
  isoTOP-ABPP reactivity Q15398_C129 DLGAP5: 20.0

## C=CC(=O)Nc1cc(F)c(N2CCN(C(=O)OC(C)(C)C)CC2)c(F)c1 [compound 38]
[2]; 231
  isoTOP-ABPP ratio P04818_C199: 20.0
[6]; 231
  isoTOP-ABPP ratio Q8N1F7_C522: 1.7
[7]
  isoTOP-ABPP ratio P53384_C235: 2.0
[4]; 200 μM, insitu, 231
  isoTOP-ABPP ratio O14980_C528: 2.1
[8]; 200 μM, insitu, 231
  isoTOP-ABPP ratio P09110_C381: 0.8
[5]; 200 μM, insitu, 231
  isoTOP-ABPP ratio Q15398_C129: 1.4
[9]; 231
  isoTOP-ABPP ratio O14933_C98: 1.6

## O=C(CCl)NC(=O)NC12CC3CC(CC(C3)C1)C2 [compound 12]
[1]; 231
  isoTOP-ABPP ratio O60825_C158: 0.8
[6]; 231
  isoTOP-ABPP ratio Q8N1F7_C522: 20.0
[7]
  isoTOP-ABPP ratio, cysteine P53384_C235: 0.5
[3]
  isoTOP-ABPP ratio, cysteine O15446_C86: 3.3
[10]; 200 μM, insitu, 231
  isoTOP-ABPP ratio Q9BRF8_C54: 1.2
[8]; 200 μM, insitu, 231
  isoTOP-ABPP ratio, cysteine P09110_C381: 4.5

## C=CC(=O)N(Cc1cccnc1)c1cc(C(F)(F)F)cc(C(F)(F)F)c1 [compound 31]
[1]; ramos
  isoTOP-ABPP ratio O60825_C158: 1,3
[6]; ramos
  isoTOP-ABPP ratio Q8N1F7_C522: 3.6
[7]
  isoTOP-ABPP ratio P53384_C235: 0.7
[8]; 200 μM, insitu, 231
  isoTOP-ABPP ratio P09110_C381: 0.7
[5]; 200 μM, insitu, ramos
  isoTOP-ABPP ratio Q15398_C129: 2.4
[9]; ramos
  isoTOP-ABPP ratio O14933_C98: 1.9

## Cn1cc(S(=O)(=O)N2CCOCC2)cc1C(=O)NC(=O)CCl [compound 11]
[4]; 100 μM in situ 231
  isoTOP-ABPP ratio O14980_C528: 0.7
[10]; 100 μM in situ 231
  isoTOP-ABPP ratio Q9BRF8_C54: 1.0
[8]; 100 μM in situ 231
  isoTOP-ABPP ratio, cysteine P09110_C381: 0.8
[5]; 100 μM in situ 231
  isoTOP-ABPP ratio, cysteine Q15398_C129: 0.6

## O=C(CCl)NCCc1c[nH]c2ccccc12 [compound 13]
[1]; ramos
  isoTOP-ABPP ratio O60825_C158: 0.9
[6]; ramos
  isoTOP-ABPP ratio Q8N1F7_C522: 2.2
[3]
  isoTOP-ABPP ratio, cysteine O15446_C86: 1.3
[4]; 200 μM, insitu, 231
  isoTOP-ABPP ratio O14980_C528: 1.1
[4]; 200 μM, insitu, ramos
  isoTOP-ABPP ratio O14980_C528: 1.1
[10]; 200 μM, insitu, 231
  isoTOP-ABPP ratio Q9BRF8_C54: 1.4

## O=C(CCl)N1CCN(CC(=O)N2CCOCC2)CC1 [compound 29]
[1]; ramos
  isoTOP-ABPP ratio O60825_C158: 0.9
[2]; ramos
  isoTOP-ABPP ratio P04818_C199: 2.5
[6]; ramos
  isoTOP-ABPP ratio Q8N1F7_C522: 1.7
[4]; 200 μM, insitu, ramos
  isoTOP-ABPP ratio O14980_C528: 1.1
[10]; 200 μM, insitu, ramos
  isoTOP-ABPP ratio Q9BRF8_C54: 1.5
[5]; 200 μM, insitu, ramos
  isoTOP-ABPP ratio Q15398_C129: 1.2
[9]; ramos
  isoTOP-ABPP ratio O14933_C98: 2.4

## O=C(CCl)NC12CC3CC(CC(C3)C1)C2 [compound 21]
[1]; 231
  isoTOP-ABPP ratio O60825_C158: 1.4
[3]
  isoTOP-ABPP ratio, cysteine O15446_C86: 1.7
[4]; 200 μM, insitu, 231
  isoTOP-ABPP ratio O14980_C528: 0.8
[9]; 231
  isoTOP-ABPP ratio, cysteine O14933_C98: 0.7

## O=C(CCl)N1CCC(Cc2ccccc2)CC1 [compound 9]
[7]
  isoTOP-ABPP reactivity P53384_C235 NUBP1: 6.8
[10]; 200 μM, insitu, 231
  isoTOP-ABPP reactivity Q9BRF8_C54 CPPED1: 2.4

— patent US10670605B2, “Cysteine reactive probes and uses thereof” (The Scripps Research Institute, priority 2015, dated 2020)
